Measured values reported in US6593357B1, “Pyrazole compositions useful as inhibitors of ERK” (Vertex Pharmaceuticals Incorporated, priority 2000, dated 2003).
Read-outs that look alike come from different tables or passages of the source.

Legend:
ERK2 = ERK2 (Homo sapiens, UniProt P28482); assay: ERK2 inhibition, spectrophotometric coupled-enzyme assay; format: biochemical; conditions: activated ERK2 10 nM, 65 μM ATP, 30° C., pH 7.5
Aurora2 = target: T1, Aurora2 (Homo sapiens, UniProt O14965); assay: Aurora inhibition, standard coupled enzyme assay; format: biochemical; conditions: 40 μM ATP, 30° C.; read-out: Aurora2 Inhibitory Activity (IC50 class)
T1 sequence (O14965 1-403): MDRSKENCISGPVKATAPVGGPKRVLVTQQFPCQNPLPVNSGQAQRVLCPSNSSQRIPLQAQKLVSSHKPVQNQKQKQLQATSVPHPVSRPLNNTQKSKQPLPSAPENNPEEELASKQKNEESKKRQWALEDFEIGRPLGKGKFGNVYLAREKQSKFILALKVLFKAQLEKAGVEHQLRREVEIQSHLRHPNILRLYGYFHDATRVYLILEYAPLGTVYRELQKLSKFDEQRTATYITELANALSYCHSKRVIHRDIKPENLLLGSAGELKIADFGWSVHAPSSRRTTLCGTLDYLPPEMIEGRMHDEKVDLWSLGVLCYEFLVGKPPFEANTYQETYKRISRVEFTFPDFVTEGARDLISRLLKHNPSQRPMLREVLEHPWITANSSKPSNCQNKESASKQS
Protocol: Compounds were screened in the following manner for their ability to inhibit Aurora using a standard coupled enzyme assay. To an assay stock buffer solution containing 0.1M HEPES 7.5, 10 mM MgCl2, 25 mM NaCl, 2.5 mM phosphoenolpyruvate, 300 μM NADH, 30 μg/mL pyruvate kinase, 10 μg/mL lactate dehydrogenase, 40 μM ATP, and 800 μM peptide (LRRASLG, American Peptide, Sunnyvale, Calif.) was added a 30 μM solution of the compound in DMSO and the resulting mixture incubated at 30° C. for 10 min. The reaction was initiated by the addition of 10 μL of 70 nM Aurora and 1 mM DTT. The rates of reaction were obtained by monitoring absorbance at 340 nm over a 5 minute read time at 30° C. using a BioRad Ultramark plate reader (Hercules, Calif.). The IC50 was determined from the rate data as a function of inhibitor concentration.
The compound numbers correspond to the compound numbers in Table 1.

[1] = read-out: ERK2 Inhibitory Activity (Ki class)

Sequence of ERK2 (P28482 whole entry): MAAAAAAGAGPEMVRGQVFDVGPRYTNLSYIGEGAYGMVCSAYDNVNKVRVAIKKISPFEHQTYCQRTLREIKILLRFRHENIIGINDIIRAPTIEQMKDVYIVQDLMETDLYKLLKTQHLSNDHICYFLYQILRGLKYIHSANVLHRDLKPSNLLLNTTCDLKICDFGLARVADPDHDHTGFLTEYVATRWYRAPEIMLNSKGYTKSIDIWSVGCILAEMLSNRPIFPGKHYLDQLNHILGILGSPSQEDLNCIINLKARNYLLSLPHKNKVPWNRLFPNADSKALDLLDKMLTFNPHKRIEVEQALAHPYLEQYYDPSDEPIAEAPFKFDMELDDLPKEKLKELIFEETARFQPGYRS

With `CC(C)ONC(=O)c1cc(-c2[nH]ncc2-c2cccc(Br)c2)c[nH]1` [II-161] the Ki (ERK2; [1]) was greater than 5 µM.

`CCOC(=O)c1cc(-c2[nH]ncc2-c2cccc(F)c2)c[nH]1` [II-162] gave a Ki (ERK2; [1]) greater than 5 µM.

`CCOC(=O)c1cc(-c2[nH]ncc2-c2ccc(N)cc2)c[nH]1` [II-164] showed a Ki (ERK2; [1]) greater than 5 µM.

With `CCOC(=O)c1cc(-c2[nH]ncc2-c2ccc([N+](=O)[O-])cc2)c[nH]1` [II-165] the Ki (ERK2; [1]) was greater than 5 µM.

For `CC1CCN(C(=O)c2cc(-c3[nH]ncc3-c3ccccc3)c[nH]2)CC1` [II-166], the Ki (ERK2; [1]) was greater than 5 µM.

`O=C(NCc1cccnc1)c1cc(-c2[nH]ncc2-c2cc(F)ccc2F)c[nH]1` [II-181] was tested, and the IC50 (Aurora2) was 5 to 10 µM.

`O=C(NCC1CCCO1)c1cc(-c2[nH]ncc2-c2cc(F)ccc2F)c[nH]1` (stereo not shown) [II-188] showed an IC50 (Aurora2) greater than 10 µM.

With `O=C(NCc1ccncc1)c1cc(-c2[nH]ncc2-c2ccc(Cl)cc2)c[nH]1` [II-211] the IC50 (Aurora2) was 5 to 10 µM.

In the case of `COc1ccc(-c2cn[nH]c2-c2c[nH]c(C(=O)NCc3ccncc3)c2)cc1OC` [II-212], the IC50 (Aurora2) is reported as 5 to 10 µM.

Compound `O=C(NCc1ccncc1)c1cc(-c2[nH]ncc2-c2ccc3c(c2)OCO3)c[nH]1` [II-213] has an IC50 (Aurora2) of 5 to 10 µM.

`O=C(NCc1cccnc1)c1cc(-c2[nH]ncc2-c2ccc(Cl)cc2)c[nH]1` [II-214] was tested, and the IC50 (Aurora2) was 5 to 10 µM.

`COc1ccc(-c2cn[nH]c2-c2c[nH]c(C(=O)NCc3cccnc3)c2)cc1OC` [II-215] gave an IC50 (Aurora2) of 5 to 10 µM.

`O=C(NCc1cccnc1)c1cc(-c2[nH]ncc2-c2ccc3c(c2)OCO3)c[nH]1` [II-216] gave an IC50 (Aurora2) of 5 to 10 µM.

Work on `COc1ccc(-c2cn[nH]c2-c2c[nH]c(C(=O)NCC3CCCO3)c2)cc1OC` (stereo not shown) [II-218] yielded an IC50 (Aurora2) of 5 to 10 µM.

Compound `COc1ccc(-c2cn[nH]c2-c2c[nH]c(C(=O)N3CCOCC3)c2)cc1OC` [II-228] has an IC50 (Aurora2) of less than 5 µM.

`O=C(NCCc1cnc[nH]1)c1cc(-c2[nH]ncc2-c2ccc(Cl)cc2)c[nH]1` [II-252] gave an IC50 (Aurora2) of 5 to 10 µM.

Compound `O=C(NCCc1cnc[nH]1)c1cc(-c2[nH]ncc2-c2ccc(Cl)c(Cl)c2)c[nH]1` [II-254] has an IC50 (Aurora2) of less than 5 µM.

`O=C(NCCc1cnc[nH]1)c1cc(-c2[nH]ncc2-c2cccc(Cl)c2F)c[nH]1` [II-255] gave an IC50 (Aurora2) of 5 to 10 µM.

Compound `O=C(NCc1ccccc1)c1cc(-c2[nH]ncc2-c2cccc([N+](=O)[O-])c2)c[nH]1` [II-285] has a Ki (ERK2; [1]) of 1 to 5 µM.

Compound `CCN1CCCC1CNC(=O)c1cc(-c2n[nH]cc2-c2cccc(Cl)c2)c[nH]1` (stereo not shown) [II-286] has a Ki (ERK2; ERK2 Inhibitory Activity (Ki class)) greater than 5 µM.

Work on `O=C(c1cc(-c2[nH]ncc2-c2cccc(Br)c2)c[nH]1)N(Cc1ccccc1)[C@H](CO)c1ccccc1` [II-288] yielded a Ki (ERK2; [1]) of 1 to 5 µM.

For `O=C(NCc1ccncc1)c1cc(-c2[nH]ncc2-c2cccc([N+](=O)[O-])c2)c[nH]1` [II-289], the Ki (ERK2; [1]) was greater than 5 µM.

`O=C(NC(COc1ccccc1)c1ccc2c(c1)OCCO2)c1cc(-c2[nH]ncc2-c2cccc(Br)c2)c[nH]1` (stereo not shown) [II-290] showed a Ki (ERK2; [1]) of 1 to 5 µM.

`CCN(C)C(=O)c1cc(-c2[nH]ncc2-c2cccc(F)c2)c[nH]1` [II-291] was tested, and the Ki (ERK2; [1]) was greater than 5 µM.

Work on `CCN(C)C(=O)c1cc(-c2[nH]ncc2-c2cccc(OC)c2)c[nH]1` [II-292] yielded a Ki (ERK2; [1]) greater than 5 µM.

Compound `O=C(N[C@@H](CO)Cc1ccc(O)cc1)c1cc(-c2[nH]ncc2-c2cccc(Br)c2)c[nH]1` [II-293] has a Ki (ERK2; [1]) greater than 5 µM.

Work on `O=C(N[C@@H](CO)Cc1cnc[nH]1)c1cc(-c2[nH]ncc2-c2cccc(Br)c2)c[nH]1` [II-294] yielded a Ki (ERK2; [1]) greater than 5 µM.

For `O=C(NC(CO)(CO)CO)c1cc(-c2[nH]ncc2-c2cccc(Br)c2)c[nH]1` [II-295], the Ki (ERK2; [1]) was greater than 5 µM.

With `COc1ccc(C[C@H](CO)NC(=O)c2cc(-c3[nH]ncc3-c3cccc(Br)c3)c[nH]2)cc1OC` [II-296] the Ki (ERK2; [1]) was greater than 5 µM.

Compound `CN(C)CCNC(=O)c1cc(-c2[nH]ncc2-c2ccccc2)c[nH]1` [II-297] has a Ki (ERK2; [1]) greater than 5 µM.

Compound `O=C(NCc1ccccc1)c1cc(-c2[nH]ncc2-c2cccc(Br)c2)c[nH]1` [II-299] has a Ki (ERK2; [1]) greater than 5 µM.
